Measured values as given in the NIST ThermoML archive (doi:10.1016/j.jct.2015.03.012).
Numbers after ± are expanded uncertainties.

What was measured:
[1] = mn = molality of the nth substance listed, in mol/kg; details: 298.15 K, 101.3 kPa, Liquid, Vibrating tube method
[2] = wn = mass fraction of the nth substance listed; details: 298.15 K, 101.3 kPa, Liquid, Vibrating tube method

OCC1CO1 (stereo not drawn) [2,3-epoxy-1-propanol] + O
mass density ([1]; m1 = 0.4019): 1001.85 ± 0.44 kg/m3

OC[C@@H]1CO1 [R-(+)-glycidol] + O
mass density ([1]; m1 = 0.402): 1002.68 ± 0.27 kg/m3

OC[C@H]1CO1 [S-(-)-glycidol] + O
mass density ([1]; m1 = 0.4554): 1002.79 ± 0.27 kg/m3

CN(C)C=O [dimethylformamide] + O
mass density ([2]; w1 = 0.05): 996.463 ± 0.11 kg/m3 | mass density ([2]; w1 = 0.1001): 996.232 ± 0.11 kg/m3 | mass density ([2]; w1 = 0.15): 996.24 ± 0.11 kg/m3 | mass density ([2]; w1 = 0.2001): 996.402 ± 0.11 kg/m3 | mass density ([2]; w1 = 0.2502): 996.649 ± 0.11 kg/m3
